Test results as given in patent publication US20070037752A1, “Novel alanyl-amino peptidase inhibitors for functionally influencing different cells and treating immunological, inflammatory, neuronal, and other diseases” (priority 2003, published 2007).

biological target: alanyl aminopeptidases (APN) (Homo sapiens, UniProt P15144); assay: Inhibition of alanyl aminopeptidase enzymatic activity, fluorogenic substrate (Ala)2-rhodamine 110; format: biochemical; details: Table 1, unstarred values; read-out: IC50APN
Sequence (P15144 whole entry, species assumed): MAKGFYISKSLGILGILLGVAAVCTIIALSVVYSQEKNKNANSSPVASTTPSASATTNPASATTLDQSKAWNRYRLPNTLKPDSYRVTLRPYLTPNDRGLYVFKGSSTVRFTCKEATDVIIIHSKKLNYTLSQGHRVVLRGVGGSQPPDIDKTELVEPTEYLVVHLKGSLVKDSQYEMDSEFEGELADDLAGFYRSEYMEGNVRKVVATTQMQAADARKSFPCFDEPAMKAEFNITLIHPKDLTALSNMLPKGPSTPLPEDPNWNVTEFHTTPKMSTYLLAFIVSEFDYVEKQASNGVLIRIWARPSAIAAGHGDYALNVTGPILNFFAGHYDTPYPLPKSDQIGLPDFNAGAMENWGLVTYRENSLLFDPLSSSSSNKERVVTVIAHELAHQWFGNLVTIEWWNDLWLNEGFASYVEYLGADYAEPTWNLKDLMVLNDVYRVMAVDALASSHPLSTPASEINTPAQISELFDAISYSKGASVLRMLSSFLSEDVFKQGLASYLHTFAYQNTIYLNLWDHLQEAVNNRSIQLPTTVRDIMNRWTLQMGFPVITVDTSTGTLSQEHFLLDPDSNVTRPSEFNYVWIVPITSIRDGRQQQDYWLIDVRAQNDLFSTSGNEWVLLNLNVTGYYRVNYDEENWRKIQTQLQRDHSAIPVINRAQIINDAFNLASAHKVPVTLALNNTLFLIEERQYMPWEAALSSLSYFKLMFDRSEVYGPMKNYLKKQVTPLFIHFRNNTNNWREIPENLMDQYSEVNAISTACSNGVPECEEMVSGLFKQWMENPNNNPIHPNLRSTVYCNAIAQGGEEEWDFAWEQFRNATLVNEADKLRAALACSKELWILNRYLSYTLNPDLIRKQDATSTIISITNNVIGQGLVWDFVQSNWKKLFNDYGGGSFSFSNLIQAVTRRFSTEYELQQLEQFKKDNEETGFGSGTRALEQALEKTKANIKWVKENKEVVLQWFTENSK
Description: The inhibition characteristics measured are referred to as IC-50 values or ID50 values (the latter marked with “*”) for said enzyme. The enzymatic activity was determined by means of the fluorogenic substrate/product (Ala)2-rhodamine 110.

Row | IC50 [µM] | Structure (SMILES)
1 | 5.6 | Cc1cc(Cl)ccc1OCCC(=O)NO [A1.002]
2 | 6.3 | O=C(CCOC(c1ccccc1)c1ccc(Br)cc1)NO (centres unmarked) [A1.003]
3 | 6.4 | O=C(COc1ccc(Br)cc1)NO [A1.004]
4 | 7.3 | O=C(CCOC(c1ccccc1)c1ccc(Cl)cc1)NO (centres unmarked) [A1.005]
5 | 7.5 | CCOc1ccc(CC(=O)NO)cc1 [A1.006]
6 | 8.4 | O=C(ON1C(=O)CCC1=O)C1CCC(=O)N1C(=O)OCc1ccccc1 (centres unmarked) [A1.007]
7 | 11.5 | O=C(CS(=O)(=O)c1ccc(Cl)cc1)NO [A1.008]
8 | 14.1 | O=C(CCCCCN1C(=O)c2cccc3cccc(c23)C1=O)NO [A1.009]
9 | 14.2 | Cc1ccc(C(OCCC(=O)NO)c2ccccc2)cc1 (centres unmarked) [A1.010]
10 | 17.1 | O=C(O)C1N=NC(c2ccc(F)cc2)=CN1O (centres unmarked) [A1.011]
11 | 21.8 | O=C(CCOC(c1ccc(F)cc1)c1ccc(F)cc1)NO [A1.012]
12 | 25.2 | CC(CCc1ccccc1)C(=O)NO (centres unmarked) [A1.013]
13 | 33 | COc1ccc(C(OCCC(=O)NO)c2ccccc2)cc1 (centres unmarked) [A1.014]
14 | 80.6 | N#CCCCCCCCCC(=O)NO [A1.015]

same assay, conditions: Table 2; read-out: IC50APN

Row | IC50 [µM] | Structure (SMILES)
15 | 2.2 | CCCCc1noc2c1/C(=N/O)CC(c1ccccc1)C2 (centres unmarked) [A2.001]
16 | 8.6 | C/C(=N/O)c1ccc2c(c1)OCCOCCOc1cc(/C(C)=N\O)ccc1OCCOCCO2 [A2.002]
17 | 10.9 | Cc1ccc(/C=N/NC(=O)c2nnn(-c3nonc3N)c2C)o1 [A2.003]
18 | 12.5 | COCc1nnn(-c2nonc2N)c1C(=O)N/N=C/c1ccco1 [A2.004]
19 | 13.4 | N/C(=N/OS(=O)(=O)c1ccc(C(F)(F)F)cc1)C1CSCCS1 (centres unmarked) [A2.006]
20 | 14.6 | N/C(=N\N=C\c1ccco1)c1nonc1N [A2.007]
21 | 46.6 | Nc1nonc1-n1nnc(C(=O)N/N=C/c2ccco2)c1-c1ccccc1 [A2.008]
22 | 93.6 | COC(=O)CCC/C=C1/SC[C@@H](NC(=O)c2ccccc2)/C1=N/O [A2.010]

same assay, conditions: Table 3, starred values = ID50; read-out: ID50 APN (values marked with *)

Row | IC50 [µM] | Structure (SMILES)
23 | 0.9 | CCOC(=O)c1ncn(C(=O)OC)c1N [A3.002]
24 | 1.2 | CC1=C(C#N)C(=O)N(CCO)C(=O)/C1=C\c1ccc(-c2cc(Cl)ccc2Cl)o1 [A3.003]
25 | 2.2 | CCCCc1noc2c1/C(=N/O)CC(c1ccccc1)C2 (centres unmarked) [A3.006]
26 | 2.6 | CCOC(=O)c1nc[nH]c1N [A3.007]
27 | 2.6 | Nc1ccc2c(c1)C/C(=C\c1ccco1)C2=O [A3.008]

same assay, conditions: Table 3, unstarred values

Row | IC50APN | Structure (SMILES)
28 | “very high | COC(=O)C1=C(N)N2C(=O)CSC2=C(C(=O)OC)C1 [A3.001]

same assay, conditions: Table 3, unstarred values; read-out: IC50APN

Row | IC50 [µM] | Structure (SMILES)
29 | 3 | O=C(Nc1cccc(/N=C/c2cc(I)cc(I)c2O)c1)c1ccco1 [A3.009]
30 | 3.4 | C/C(Cn1nnc([N+](=O)[O-])n1)=N/NC(=O)COc1ccccc1[N+](=O)[O-] [A3.010]
31 | 3.6 | O=C(Nc1cccc(/N=C/c2cc(/N=N\c3ccccc3Cl)ccc2O)c1)c1ccco1 [A3.011]
32 | 4.3 | CCOC(=O)c1nc(C)[nH]c1N [A3.012]
33 | 4.5 | Cc1cc(C)c(C)c(C(=O)COC(=O)c2ccc(-n3c(C)ccc3C)cc2)c1C [A3.014]
34 | 4.7 | COC(=O)C1=C(C(=O)OC)C(c2cc(Br)ccc2O)c2sc(O)nc2S1 (centres unmarked) [A3.015]
35 | 4.8 | COc1ccc(/C=N/NC(=O)C2=C(C)Nc3ccccc3S2)cc1Cn1nc(C)c(Br)c1C [A3.016]
36 | 4.9 | O=C(Nc1ccc(NCc2cc(Cc3ccccc3Cl)cc(Br)c2O)cc1)c1ccco1 [A3.017]
37 | 5 | COC(=O)c1ccc(-c2ccc(/C=C3\C(=O)N(CCCO)C(=O)C(C#N)=C3C)o2)cc1 [A3.018]
38 | 5.2 | O=C(CCC(=O)Nc1ccc(Br)cc1)N/N=C/c1ccco1 [A3.019]
39 | 5.4 | CCOC(=O)c1c(N)ncn1-c1ccccc1 [A3.020]
40 | 6.2 | CC1CCN(C(=O)/C(=C\c2ccco2)NC(=O)c2ccc(Cl)cc2)CC1 [A3.022]
41 | 6.3 | COC(=O)c1cccc(-c2ccc(/C=C3\C(=O)N(CCO)C(=O)C(C#N)=C3C)o2)c1 [A3.023]
42 | 6.6 | CCc1cccc(CC)c1NC(=S)N/N=C1\C(=O)N(CN2CC(C)CC(C)C2)c2ccccc21 (centres unmarked) [A3.024]
43 | 6.9 | Cc1ccc(/C=N/NC(=O)c2nnn(-c3nonc3N)c2-c2ccccc2)o1 [A3.025]
44 | 7.3 | CCOC(=O)N1CCc2c(sc(NC(=O)c3ccc(F)cc3)c2C(=O)Nc2ccc(Br)cc2)C1 [A3.026]
45 | 7.4 | CCOC(=O)C1C(C)C2C3C(=O)N(c4cccc5ccccc45)C(=O)C3C1(C)C1C(=O)N(c3cccc4ccccc34)C(=O)C21 (centres unmarked) [A3.027]
46 | 8 | O=C(N/N=C\c1ccco1)c1ccc(S(=O)(=O)N2CCCCCC2)cc1 [A3.029]
47 | 8.1 | COc1ccc(Cl)cc1C(=O)N/C(=C/c1ccco1)C(=O)N1CC2CC(C1)c1cccc(=O)n1C2 (centres unmarked) [A3.030]
48 | 8.2 | O=C(Nc1cccc(/N=C/c2cc(Br)cc(Br)c2O)c1)c1ccco1 [A3.031]
49 | 8.3 | CCCCOC(=O)c1ccc(NC(=O)/C=C\c2ccco2)cc1 [A3.032]
50 | 8.4 | O=C(/C=C/c1ccco1)Nc1ccc(C(=O)O)cc1 [A3.033]
51 | 9.5 | COc1ccc(C2NCCS2)cc1 (centres unmarked) [A3.035]
52 | 9.7 | CC1=C(C#N)C(=O)N(CCCO)C(=O)/C1=C\c1ccc(-c2cc(C)c(C)cc2[N+](=O)[O-])o1 [A3.037]

Row | IC50 [µM] | Structure (SMILES)
53 | 9.8 | Cc1ccc(/C=N/NC(=O)c2cccc(NC(=O)c3ccc(F)cc3)c2)o1 [A3.038]
54 | 10.5 | Cc1ccc(/C=N/NC(=O)c2cccc(Cl)c2)o1 [A3.039]
55 | 10.6 | O=C(N/C(=C\c1ccco1)C(=O)N1CCCCC1)c1ccco1 [A3.040]
56 | 10.9 | Cc1ccc(/C=N/NC(=O)c2nnn(-c3nonc3N)c2C)o1 [A3.041]
57 | 11 | Cc1ccc(C(=O)N/C(=C\c2ccco2)C(=O)N2CC3CC(C2)c2cccc(=O)n2C3)cc1 (centres unmarked) [A3.042]
58 | 11 | COc1cc(Br)ccc1OCC(=O)N/N=C/C=C/c1ccco1 [A3.043]
59 | 11.1 | C=CC[N+]1=C(/C=C2\SC(c3ccccc3)=C(c3ccccc3)N2CC)S/C(=C/C=C2\SC(c3ccccc3)=C(c3ccccc3)N2CC)C1=O [A3.045]
60 | 11.7 | Cc1[nH]c2ccccc2c1C(c1cc(Cl)ccc1O)N1CCOCC1 (centres unmarked) [A3.046]
61 | 11.8 | NNC(=O)c1ccc(NS(=O)(=O)c2cccs2)cc1 [A3.047]
62 | 11.8 | Cc1ccc(C(=O)N/C(=C\c2ccco2)C(=O)N2CC3CC(C2)c2cccc(=O)n2C3)cc1C (centres unmarked) [A3.048]
63 | 12 | C/C(=N\NC(=O)CNC(=O)/C=C/c1ccco1)c1ccc2ccccc2c1 [A3.050]
64 | 12.2 | CCOc1cc(/C=N/NC(=O)CNC(=O)c2cccc(Cl)c2)ccc1OC(=O)c1cccs1 [A3.051]
65 | 12.3 | Cc1nc(N)sc1C(=O)N/N=C/c1ccco1 [A3.052]
66 | 12.5 | COCc1c(C(=O)N/N=C/c2ccc(C)o2)nnn1-c1nonc1N [A3.053]
67 | 12.8 | CCN(CC)C(=O)/C(=C/c1ccco1)NC(=O)c1ccccc1 [A3.054]
68 | 12.9 | Cc1cccc(C)c1NC(=S)NC(=O)c1cccs1 [A3.055]
69 | 12.9 | O=C(COc1cccc2ccccc12)N/N=C/c1ccco1 [A3.056]
70 | 13.1 | CC(C)COc1ccc(C(=O)N/C(=C\c2ccco2)C(=O)N2CCOCC2)cc1 [A3.057]
71 | 13.5 | O=C(N/C(=C\c1ccco1)C(=O)N1CCOCC1)c1ccco1 [A3.058]
72 | 13.5 | COC(=O)N/N=C(C)\C=C\c1ccco1 [A3.059]
73 | 13.6 | O=C(COc1ccc(F)cc1)N/N=C/c1ccco1 [A3.060]
74 | 13.6 | CCc1ccc(-c2cc(C(=O)N/N=C/c3c(C)nn(-c4ccccc4)c3C)[nH]n2)cc1 [A3.061]
75 | 13.9 | O=C(COc1ccc2ccccc2c1)N/N=C/c1ccco1 [A3.062]
76 | 14 | CCOC(=O)c1ncn(Cc2ccccc2)c1N [A3.063]

Row | IC50 [µM] | Structure (SMILES)
77 | 14.3 | O=C(N/N=C/c1ccco1)c1cc(C2CC2)n[nH]1 [A3.064]
78 | 14.3 | Clc1ccc(-n2cc3c(-c4ccco4)nnc(-c4nc5ccccc5s4)c3n2)cc1 [A3.065]
79 | 14.4 | O=C(N/N=C/c1ccco1)c1cc(-c2ccc(F)cc2)n[nH]1 [A3.066]
80 | 14.6 | O=c1[nH]c(/C=C/c2ccco2)cc2ccccc12 [A3.067]
81 | 14.6 | N/C(=N\N=C\c1ccco1)c1nonc1N [A3.068]
82 | 15.2 | COC(=O)c1cc(-c2ccc(/C=C3\C(=O)N(CCCO)C(=O)C(C#N)=C3C)o2)ccc1Cl [A3.069]
83 | 15.2 | O=C(NNC1=C(Cl)C(=O)C(Cl)(Cl)C1=O)c1ccccc1 [A3.070]
84 | 15.6 | O=C(CNC(=O)C(c1ccccc1)c1ccccc1)N/N=C/c1ccco1 [A3.071]
85 | 15.6 | CCOC(=O)CCCCC(=O)c1c(C)n(C(=O)c2ccc(N3C(=O)CCC3=O)cc2)c(=O)n1C(=O)c1ccc(N2C(=O)CCC2=O)cc1 [A3.072]
86 | 15.6 | Cc1ccc(/C=C(\NC(=O)c2ccccc2)C(=O)NC2CC2)o1 [A3.073]
87 | 16 | O=C(N/N=C/C=C\c1ccco1)c1ccco1 [A3.074]
88 | 16 | O=C(N/N=C/c1ccco1)c1ccccc1O [A3.075]
89 | 16 | Cc1ccc(/C=N/NC(=O)COc2ccc(Cl)cc2)o1 [A3.076]
90 | 16.4 | Cc1ccc(NC(=O)/C(=C\c2ccco2)NC(=O)c2ccc(C)cc2)cc1 [A3.077]
91 | 16.4 | COc1ccc(C2NCCS2)cc1Br (centres unmarked) [A3.078]
92 | 16.6 | CC(C)c1cc(C(=O)N/N=C/c2ccco2)[nH]n1 [A3.080]
93 | 16.7 | COc1ccc(/C=C(/NC(=O)c2ccccc2)C(=O)N/N=C\C=C\c2ccc(C)o2)cc1OC [A3.081]
94 | 16.8 | O=C(N/N=C/c1ccco1)c1ccc(O)cc1 [A3.082]
95 | 17 | COc1cc(/C=N/NC(=O)c2cc(-c3ccco3)n[nH]2)cc(OC)c1OC [A3.083]
96 | 17.7 | Cc1ccc(/C=N/NC(=O)c2ccccc2Cl)o1 [A3.084]
97 | 17.9 | Cc1ccc(NC(=O)/C(=C\c2ccco2)NC(=O)c2ccccc2Cl)cc1 [A3.086]
98 | 18.1 | C=CCOC(=O)c1cc(-c2ccc(/C=C3/C(=O)N(CCCO)C(=O)C(C#N)=C3C)o2)ccc1Cl [A3.087]
